Assays:
Conditions in all cases: 72 h
Calu-3 [1] = test: cell viability relative to DMSO; higher = less toxic
HepG2 [2] = test: as above
Caco-2 [3] = test: as above
Vero E6 [4] = test: as above
Calu-3 [5] = test: relative viability EC50 (midpoint between 100% and the lowest measured viability); higher = less toxic
HepG2 [6] = test: as above
Caco-2 [7] = test: as above
Vero E6 [8] = test: as above
Calu-3 [9] = test: drug sensitivity score (DSS) for viability; higher = more toxic; extreme values may be limits of the assay
HepG2 [10] = test: as above
Caco-2 [11] = test: as above
Vero E6 [12] = test: as above
U2OS [13] = test: cell viability relative to DMSO; higher = less toxic
U2OS [14] = test: relative viability EC50 (midpoint between 100% and the lowest measured viability); higher = less toxic
U2OS [15] = test: drug sensitivity score (DSS) for viability; higher = more toxic; extreme values may be limits of the assay

SMILES | cell viability (Calu-3 [1]; 1 nM) | cell viability (Calu-3 [1]; 10 nM) | cell viability (Calu-3 [1]; 100 nM) | cell viability (Calu-3 [1]; 1000 nM) | cell viability (Calu-3 [1]; 10000 nM) | cell viability (HepG2 [2]; 1 nM) | cell viability (HepG2 [2]; 10 nM) | cell viability (HepG2 [2]; 100 nM) | cell viability (HepG2 [2]; 1000 nM) | cell viability (HepG2 [2]; 10000 nM) | cell viability (Caco-2 [3]; 1 nM) | cell viability (Caco-2 [3]; 10 nM) | cell viability (Caco-2 [3]; 100 nM) | cell viability (Caco-2 [3]; 1000 nM) | cell viability (Caco-2 [3]; 10000 nM) | cell viability (Vero E6 [4]; 1 nM) | cell viability (Vero E6 [4]; 10 nM) | cell viability (Vero E6 [4]; 100 nM) | cell viability (Vero E6 [4]; 1000 nM) | cell viability (Vero E6 [4]; 10000 nM) | relative viability EC50 (Calu-3 [5]) | relative viability EC50 (HepG2 [6]) | relative viability EC50 (Caco-2 [7]) | relative viability EC50 (Vero E6 [8]) | drug sensitivity score (Calu-3 [9]) | drug sensitivity score (HepG2 [10]) | drug sensitivity score (Caco-2 [11]) | drug sensitivity score (Vero E6 [12]) | cell viability (U2OS [13]; 1 nM) | cell viability (U2OS [13]; 10 nM) | cell viability (U2OS [13]; 100 nM) | cell viability (U2OS [13]; 1000 nM) | cell viability (U2OS [13]; 10000 nM) | relative viability EC50 (U2OS [14]) | drug sensitivity score (U2OS [15])
CCCC(C)NC(=O)c1ccc(Cl)c(Cl)c1 (stereo not given) | 103% | 77.1% | 99% | 77.4% | 104% | 97.1% | 104% | 92.8% | 98% | 98.6% | 120% | 98% | 104% | 117% | 94.5% | 104% | 101% | 99.3% | 103% | 99.8% | > 10 µM | > 10 µM | > 10 µM | > 10 µM | 0 | 0 | 0 | 0 |  |  |  |  |  |  | 
Nc1nc2ccc(OC(F)(F)F)cc2s1 [riluzole] | 96% | 100% | 109% | 97.5% | 103% | 97.9% | 106% | 96.6% | 94.7% | 105% | 97.4% | 90.4% | 91.7% | 103% | 96.9% | 93.4% | 98.1% | 98.7% | 99.5% | 104% | > 10 µM | > 10 µM | > 10 µM | > 10 µM | 0 | 0 | 0 | 0 |  |  |  |  |  |  | 
O=C(COc1ccc(C(=O)c2ccccc2)cc1)NC1CCN(Cc2ccccc2)CC1 [adiporon] |  |  |  |  |  | 92.1% | 94.3% | 94.8% | 107% | 85.4% | 95.2% | 92.7% | 99% | 91.6% | 91.9% | 97.1% | 98.2% | 93.8% | 96.9% | 101% |  | > 10 µM | > 10 µM | > 10 µM |  | 0 | 0 | 0 | 96.4% | 93.2% | 100% | 98.1% | 95.7% | > 10 µM | 0
N=C(N)NCCC[C@H](NC(=O)[C@@H]1CCCN1C(=O)[C@@H]1CSSC[C@H](N)C(=O)N[C@@H](Cc2ccc(O)cc2)C(=O)N[C@@H](Cc2ccccc2)C(=O)N[C@@H](CCC(N)=O)C(=O)N[C@@H](CC(N)=O)C(=O)N1)C(=O)NCC(N)=O [vasopressin] |  |  |  |  |  | 101% | 98% | 86.3% | 92.3% | 99.5% | 94.8% | 93% | 88% | 87.5% | 99.2% | 101% | 99.1% | 98.1% | 94% | 99.1% |  | > 10 µM | > 10 µM | > 10 µM |  | 0 | 0 | 0 | 102% | 97.2% | 99.8% | 97.8% | 98% | > 10 µM | 0
NC(=O)OCCCc1ccccc1 [phenprobamate] |  |  |  |  |  | 105% | 109% | 95% | 98.6% | 112% | 104% | 95.4% | 99.1% | 102% | 104% |  |  |  |  |  |  | > 10 µM | > 10 µM |  |  | 0 | 0 |  | 102% | 98.6% | 103% | 102% | 98.9% | > 10 µM | 0
OC(CCCN1CCCCC1)(c1ccccc1)c1ccccc1 [diphenidol] | 120% | 104% | 97.8% | 106% | 98.6% | 96.1% | 101% | 102% | 109% | 105% | 90.3% | 93.3% | 90.5% | 102% | 87.8% |  |  |  |  |  | > 10 µM | > 10 µM | > 10 µM |  | 0 | 0 | 0 |  | 104% | 98.9% | 103% | 99.5% | 100% | > 10 µM | 0
Cc1ccc(NC(=O)c2ccc(CN3CC[C@H](N(C)C)C3)c(C(F)(F)F)c2)cc1Nc1nccc(-c2cncnc2)n1 [bafetinib] | 98.7% | 107% | 98.8% | 99.9% | 74.8% | 98.4% | 89.2% | 91% | 85.1% | 19.5% | 97.1% | 108% | 92.9% | 104% | 79% | 96.7% | 98.1% | 96.5% | 99.7% | 76.1% |  | 1.8 µM | > 10 µM | > 10 µM | 1 | 6.9 | 0.5 | 0.9 | 99.9% | 101% | 103% | 99.4% | 79% | > 10 µM | 0.7
Cc1noc(C)c1-c1ccc(-c2cc(C(N)=O)c(NC(N)=O)s2)c(O[C@H]2CCNC2)c1 [AZD3264] | 97.4% | 95.7% | 103% | 101% | 105% | 114% | 97.6% | 99.8% | 101% | 99.4% | 95.7% | 100% | 100% | 103% | 106% | 102% | 104% | 105% | 97.4% | 103% | > 10 µM | > 10 µM | > 10 µM | > 10 µM | 0 | 0 | 0 | 0 |  |  |  |  |  |  | 
COc1c(N2CCNC(C)C2)c(F)cc2c(=O)c(C(=O)O)cn(C3CC3)c12 (stereo not given) [gatifloxacin] | 101% | 114% | 103% | 103% | 89.4% | 99.1% | 101% | 95.9% | 98.7% | 100% | 95.7% | 99.9% | 97.6% | 100% | 96.8% |  |  |  |  |  | > 10 µM | > 10 µM | > 10 µM |  | 0 | 0 | 0 |  | 102% | 98.5% | 94.7% | 95.2% | 93% | > 10 µM | 0
CCOc1c(N2CCOCC2)cnn(C)c1=O [emorfazone] |  |  |  |  |  | 106% | 109% | 97.2% | 118% | 108% | 99.1% | 119% | 112% | 127% | 108% | 95.3% | 93.6% | 98.3% | 96.2% | 99.4% |  | > 10 µM | > 10 µM | > 10 µM |  | 0 | 0 | 0 | 96.4% | 93.1% | 93.8% | 96.1% | 104% | > 10 µM | 0
O[C@@H](CN1CCNCC1)Cn1c2ccc(Br)cc2c2cc(Br)ccc21 [BAX-channel-blocker] |  |  |  |  |  | 91.2% | 102% | 90.4% | 95% | 0.2% | 100% | 104% | 93.6% | 87.7% | 10.4% | 101% | 96.5% | 96.1% | 92.9% | 0.2% |  | 2.78 µM | 2.06 µM | 2.59 µM |  | 6.3 | 7 | 6.6 | 97.6% | 102% | 97.8% | 93.9% | 3.8% | 2.66 µM | 6.3
Cn1ccc2cc3c(cc21)CCN3C(=O)Nc1cccnc1 |  |  |  |  |  | 105% | 114% | 95.7% | 95.3% | 100% | 88.8% | 93.2% | 98.1% | 104% | 81.3% | 99.1% | 96.8% | 100% | 95.5% | 100% |  | > 10 µM | > 10 µM | > 10 µM |  | 0 | 0.1 | 0 | 98.2% | 102% | 93.9% | 96% | 95.1% | > 10 µM | 0
O=C(O)c1cc(Oc2ccc([N+](=O)[O-])cc2)cc(Oc2ccc([N+](=O)[O-])cc2)c1 [compound-w] | 107% | 104% | 105% | 96.9% | 94.6% | 106% | 98.9% | 102% | 104% | 108% |  |  |  |  |  |  |  |  |  |  | > 10 µM | > 10 µM |  |  | 0 | 0 |  |  |  |  |  |  |  |  | 
COc1ccc(CC2NCCc3c2[nH]c2ccc(C)cc32)c(Cl)c1OC (stereo not given) | 101% | 95.9% | 92.9% | 102% | 66.8% | 103% | 90.2% | 108% | 104% | 91.7% | 94.8% | 98.2% | 105% | 102% | 87.9% | 99% | 93.2% | 101% | 89.1% | 76.5% |  | > 10 µM | > 10 µM | > 10 µM | 1.3 | 0 | 0 | 2.1 | 95.4% | 101% | 98.3% | 101% | 94% | > 10 µM | 0
Fc1ccccc1CNCc1ccc(-c2ccnc3[nH]ccc23)cc1 [OXA-06] | 111% | 106% | 100% | 139% | 139% | 105% | 90.4% | 108% | 107% | 86.9% | 91.3% | 103% | 91.5% | 101% | 90.2% | 103% | 95.6% | 97.3% | 97.6% | 85.4% | > 10 µM | > 10 µM | > 10 µM | > 10 µM | 0 | 0 | 0 | 0.4 | 98.6% | 102% | 96.8% | 97.2% | 69.8% |  | 1.8
O=C(O)COc1cccc(CN(Cc2ccc(-n3cccn3)cc2)S(=O)(=O)c2cccnc2)c1 [taprenepag] | 109% | 95.6% | 94.5% | 92.9% | 91.7% | 92.5% | 104% | 93.8% | 104% | 96.4% | 104% | 102% | 99.2% | 109% | 93.9% | 105% | 97.2% | 97.5% | 102% | 104% | > 10 µM | > 10 µM | > 10 µM | > 10 µM | 0 | 0 | 0 | 0 |  |  |  |  |  |  | 
